# According to patent US10947263B2, “Cyclic dinucleotides as anticancer agents” (BRISTOL-MYERS SQUIBB COMPANY, priority 2017, dated 2021):
# pEC50, pIC50: −log10 of the molar value. Where two headings read alike, the source gives them in different places.
# Legend:
# [1] = test system: STING / NF-κB pathway in THP1-Dual cells; assay: STING THP1 Reporter Assay, NF-κB pathway (SEAP, QUANTI-Blue); type: cell-based; details: 10% human plasma, 100% activation = 100 μM cGAMP, SEAP readout, read-out: THP1 Reporter Assays EC50 NFkB
# From the text: (§1) THP1-Dual™ cells were derived from the human THP-1 monocyte cell line by stable integration of two inducible reporter constructs. To this end, THP1-Dual™ cells allow the simultaneous study of the […], by monitoring the activity of SEAP, and the IRF pathway by assessing the activity of a secreted luciferase (Lucia). Both reporter proteins are readily measurable in the cell culture supernatant when using QUANTI-Blue™, a SEAP detection reagent, and QUANTI-Luc™, a luciferase detection reagent.
# (§2) THP1-Dual™ cells induce the activation of NF-κB in response to STING agonists. They also trigger the IRF pathway upon stimulation with STING agonists, such as cGAMP. Here, the THP-1-Dual cells were used to assess STING binders for function on the cellular level.
# (§3) Serial dilutions of compounds in DMSO were added to low volume 384 well plates at 100 nl/well using an ECHO acoustic dispenser (Labcyte, model 550) to achieve final starting concentration of 100 μM in cell suspension. THP-1 Dual™ STING reporter cells (Invivogen, Dual cells cat #THPD-nfis) were added to the plates with compounds at 15,000 cells in 10 μL per well in RPMI media (Gibco, cat #11875) containing 10% human plasma in a low volume 384-well black wall clear bottom tissue culture plate (Corning, cat #3542) for SEAP assay and low volume solid white plate (Corning, cat #3826) for luciferase assay. One column of the plate was reserved for treatment with cGAMP at 100 μM for 100% activation calculation and one column for no treatment (DMSO only) for baseline activation. Plates were then incubated in 37 OC incubator at 5% CO2 for 20 hours.
# (§4) In the SEAP assay, […] 2× QuantiBlue (Invivogen, cat #Rep-qb2) is added to 384 well black plates seeded with THP1 cells and incubated at 37° C. for 2 hours. Plates were read on the Envision (Perkin Elmer) at 620 nm wavelength (OD620). In the luciferase assay, 5 μl of Quantiluc (Invivogen, Rep-qlc2) is added to white 384 well plates seeded with THP1 cells and read at 5 minutes on the Envision (Perkin Elmer) using a luminescence protocol (RLU). For both cell lines, 100% activation was determined by value (RLU) of THP-1 Dual STING cells stimulated with 100 μM cGAMP (Invivogen, cat #TLRL-NACGA23-5).
# [2] = test system: STING / IRF pathway in THP1-Dual cells; assay: STING THP1 Reporter Assay, IRF pathway (secreted Lucia luciferase, QUANTI-Luc); type: cell-based; details: 10% human plasma, 100% activation = 100 μM cGAMP, luciferase readout, read-out: THP1 Reporter Assays EC50 IRF3
# From the text: as §1, §2, §3, §4
# [3] = target: T1, STING AQ (His-TVMV-S-hSTING(155-341)-G230A-R293Q) (Homo sapiens, UniProt Q86WV6, G230A/H232R/R293Q); assay: STING HTRF binding assay (time resolved FRET competition), STING AQ; details: 20 nM His-tagged STING AQ cytoplasmic domain, 40 nM fluorescein-labeled cGAMP analog probe, one hour; read-out: HTRF Binding Assays IC50 AQ
# T1 construct: STING AQ: His-TVMV-S-hSTING(155-341)-G230A-R293Q
# T1 sequence (Q86WV6 with tags, fused parts or gaps G230A/H232R/R293Q): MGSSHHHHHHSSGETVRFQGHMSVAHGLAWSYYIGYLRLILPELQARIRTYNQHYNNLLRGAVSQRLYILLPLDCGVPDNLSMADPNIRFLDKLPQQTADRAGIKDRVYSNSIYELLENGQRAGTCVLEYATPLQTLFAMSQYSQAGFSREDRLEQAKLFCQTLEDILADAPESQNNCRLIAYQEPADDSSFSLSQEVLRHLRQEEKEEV
# Protocol: (§5) A time resolved FRET-based competition binding assay was used to assess test article binding to STING WT and STING AQ. His-tagged STING cytoplasmic domain (WT or AQ) at a concentration of 20 nM was incubated with 2.5 nM Tb-labeled anti-His antibody, test compound, and fluorescein-labeled cGAMP analog probe (BioLog cat. no. C195) at a concentration of 200 nM (STING WT) or 40 nM (STING AQ) in PBS containing 0.005% Tween-20 and 0.1% BSA for one hour. Fluorescence at 495 nm and 520 nm was measured using an EnVision microplate reader to quantify FRET between Tb-labeled anti-His antibody and fluorescein-labeled probe. Background was defined as the signal obtained in the absence of STING protein, and background subtracted FRET ratios were normalized to the maximum signal obtained in the absence of test compound. These values were converted to a percent inhibition. Percent inhibition was determined for test compounds at 11 concentrations. The IC50, defined as the concentration of competing test compound needed to reduce specific binding of the probe by 50%, was calculated using the 4 parameter logistic equation to fit the data
# STING AQ: His-TVMV-S-hSTING(155-341)-G230A-R293Q • […] […] […] […] LRQEEKEEV (SEQ ID NO:2)
# [4] = target: T2, STING WT (His-TVMV-S-hSTING(155-341)-H232R) (Homo sapiens, UniProt Q86WV6, H232R); assay: STING HTRF binding assay (time resolved FRET competition), STING WT; details: 20 nM His-tagged STING WT cytoplasmic domain, 200 nM fluorescein-labeled cGAMP analog probe, one hour; read-out: HTRF Binding Assays IC50 WT
# T2 construct: STING WT: His-TVMV-S-hSTING(155-341)-H232R
# T2 sequence (Q86WV6 with tags, fused parts or gaps H232R): as the sequence (Q86WV6 with tags, fused parts or gaps G230A/H232R/R293Q) above, with A99G, Q162R counted along it
# Protocol: as §5
# STING WT: His-TVMV-S-hSTING(155-341)-H232R • […] […] […] […] LRQEEKEEV (SEQ ID NO:1)
SMILES,pEC50 ([1]; 20 hours),pEC50 ([2]; 20 hours),pIC50 [3],pIC50 [4],"pEC50 ([1]; Homo sapiens, THP1-Dual, 20 h)","pEC50 ([2]; Homo sapiens, THP1-Dual, 20 h)"
"Nc1ncnc2c1ncn2[C@@H]1O[C@@H]2COP(=O)(S)O[C@@H]3[C@H](O)[C@@H](COP(=O)(S)O[C@H]2[C@H]1F)O[C@H]3n1nnc2c(C(F)(F)F)cccc21 (single isomer, unassigned) [Example 9-4]",< 4.00,< 4.00,6.22,4.90,–,–
"NC(=O)c1cccc2c1nnn2[C@@H]1O[C@@H]2COP(=O)(S)O[C@H]3[C@@H](F)[C@H](n4cnc5c(N)ncnc54)O[C@@H]3COP(=O)(S)O[C@@H]1[C@@H]2O (single isomer, unassigned) [Example 8-2]",5.12,5.28,8.00,8.00,–,–
"Nc1ncnc2c1ncn2[C@@H]1O[C@@H]2COP(=O)(S)O[C@@H]3[C@H](F)[C@@H](COP(=O)(S)O[C@H]2[C@H]1F)O[C@H]3n1nnc2c(N)cccc21 (single isomer, unassigned) [Example 12-1]",–,–,8.00,7.10,5.27,5.80
"Nc1ncnc2c1ncn2[C@@H]1O[C@@H]2COP(=O)(S)O[C@@H]3[C@H](O)[C@@H](COP(=O)(S)O[C@H]2[C@H]1F)O[C@H]3n1nnc2c([N+](=O)[O-])cccc21 (single isomer, unassigned) [Example 7-2]",4.19,4.55,7.40,6.62,–,–
"NC(=O)c1cccc2c1nnn2[C@@H]1O[C@@H]2COP(=O)(S)O[C@H]3[C@@H](F)[C@H](n4cnc5c(N)ncnc54)O[C@@H]3COP(=O)(S)O[C@@H]1[C@@H]2F (single isomer, unassigned) [Example 10-2]",4.12,4.33,8.00,7.00,–,–
"NC(=O)c1cccc2c1nnn2[C@@H]1O[C@@H]2COP(=O)(O)O[C@H]3[C@@H](F)[C@H](n4cnc5c4ncn4ccnc54)O[C@@H]3COP(=O)(S)O[C@@H]1[C@@H]2F (single isomer, unassigned) [Example 16-1]",5.11,5.66,8.00,7.05,–,–
"NC(=O)c1cccc2c1nnn2[C@@H]1O[C@@H]2COP(=O)(O)O[C@H]3[C@@H](F)[C@H](n4cnc5c(N)ncnc54)O[C@@H]3COP(=O)(O)O[C@@H]1[C@@H]2F [Example 3, 1-[(1S,6R,8R,9R,10R,15R, 17R,18R)-8-(6-amino-9H-purin-9-yl)-9,18-difluoro-3,12-dihydroxy-3,12-dioxo-2,4,7,11,13,16-hexaoxa-3λ^5,12λ^5-diphosphatricyclo [13.2.1.0^6,^10]octadecan-17-yl]-1H-1,2,3-benzotriazole-4-carboxamide]",–,–,8.00,7.52,5.17,5.46

# The remaining compounds from weak to strong by pIC50 [3], led by results:
pEC50 ([1]; 20 hours),pEC50 ([2]; 20 hours),pIC50 [3],pIC50 [4],"pEC50 ([1]; Homo sapiens, THP1-Dual, 20 h)","pEC50 ([2]; Homo sapiens, THP1-Dual, 20 h)",SMILES
–,–,8.00,8.00,5.29,5.64,"C=C1[C@H]2OP(=O)(S)OC[C@H]3O[C@@H](n4cnc5c(N)ncnc54)[C@H](F)[C@@H]3OP(=O)(S)OC[C@H]1O[C@H]2n1nnc2c(C(N)=O)cccc21 (single isomer, unassigned) [Example 22-1]"
5.68,6.22,8.00,8.00,–,–,"Nc1ncnc2c1ncn2[C@@H]1O[C@@H]2COP(=O)(S)O[C@@H]3[C@H](O)[C@@H](COP(=O)(S)O[C@H]2[C@H]1F)O[C@H]3n1nnc2c([N+](=O)[O-])cccc21 (single isomer, unassigned) [Example 7-1]"
4.82,5.14,8.00,7.22,–,–,"Nc1ncnc2c1ncn2[C@@H]1O[C@@H]2COP(=O)(S)O[C@@H]3[C@H](O)[C@@H](COP(=O)(S)O[C@H]2[C@H]1F)O[C@H]3n1nnc2c([N+](=O)[O-])cccc21 (single isomer, unassigned) [Example 7-3]"
5.68,6.00,8.00,7.70,–,–,"O=[N+]([O-])c1cccc2c1nnn2[C@@H]1O[C@@H]2COP(=O)(S)O[C@H]3[C@@H](F)[C@H](n4cnc5c4ncn4ccnc54)O[C@@H]3COP(=O)(S)O[C@@H]1[C@@H]2O (single isomer, unassigned) [Example 15-1]"
5.65,5.88,8.30,7.70,–,–,"NC(=O)c1cccc2c1nnn2[C@@H]1O[C@@H]2COP(=O)(S)O[C@H]3[C@@H](F)[C@H](n4cnc5c(N)ncnc54)O[C@@H]3COP(=O)(S)O[C@@H]1[C@@H]2F (single isomer, unassigned) [Example 10-1]"
5.66,6.10,8.40,7.70,–,–,"Nc1ncnc2c1ncn2[C@@H]1O[C@@H]2COP(=O)(S)O[C@@H]3[C@H](O)[C@@H](COP(=O)(S)O[C@H]2[C@H]1F)O[C@H]3n1nnc2c(C(F)(F)F)cccc21 (single isomer, unassigned) [Example 9-1]"
6.52,6.89,8.52,8.00,–,–,"Nc1ncnc2c1ncn2[C@@H]1O[C@@H]2COP(=O)(S)O[C@@H]3[C@H](F)[C@@H](COP(=O)(S)O[C@H]2[C@H]1F)O[C@H]3n1nnc2c([N+](=O)[O-])cccc21 (single isomer, unassigned) [Example 11-2]"
5.68,5.92,8.70,8.00,–,–,"Nc1ncnc2c1ncn2[C@@H]1O[C@@H]2COP(=O)(S)O[C@@H]3[C@H](F)[C@@H](COP(=O)(S)O[C@H]2[C@H]1F)O[C@H]3n1nnc2c([N+](=O)[O-])cccc21 (single isomer, unassigned) [Example 11-1]"
5.77,6.15,8.70,8.00,–,–,"NC(=O)c1cccc2c1nnn2[C@@H]1O[C@@H]2COP(=O)(O)O[C@H]3[C@@H](F)[C@H](n4cnc5c(N)ncnc54)O[C@@H]3COP(=O)(S)O[C@@H]1[C@@H]2O (single isomer, unassigned) [Example 4-2]"
6.05,6.52,8.70,8.00,–,–,"NC(=O)c1cccc2c1nnn2[C@@H]1O[C@@H]2COP(=O)(S)O[C@H]3[C@@H](F)[C@H](n4cnc5c(N)ncnc54)O[C@@H]3COP(=O)(S)O[C@@H]1[C@@H]2F (single isomer, unassigned) [Example 10-4]"
